Earlier results, collected in patent publication US11737458B2, “Fibrous substrate for capture of gram negative bacteria” (Kimberly-Clark Worldwide, Inc., priority 2015, dated 2023).

For `C=CC(=O)O` [acrylic acid], the pKa value is listed as “about 4.3”.
